From patent publication US9758526B2, “Quinoline-substituted compound” (TAIHO PHARMACEUTICAL CO., LTD., priority 2013, dated 2017)

Key:
EGFR (T790M/L858R) = target: T1, EGFR (T790M/L858R) (Homo sapiens, UniProt P00533, L858R/T790M); assay: EGFR (T790M/L858R) kinase inhibitory activity; type: biochemical; settings: ATP 1 μM, 25° C. for 120 minutes
T1 construct: purchased Carna Biosciences, Inc
Protocol: The inhibitory activities of the compounds of the present invention against EGFR (T790M/L858R) kinase activity were measured.
(§1) Among the materials of the inhibitory activity measurement, the substrate peptide and the kinase protein were obtained as follows. A peptide with biotinylated N-terminus (biotin-EEPLYWSFPAKKK) was synthesized with reference to FL-Peptide 22, a reagent for LabChip® series of PerkinElmer, Inc. For the kinase protein, a purified recombinant human EGFR (T790M/L858R) protein of Carna Biosciences, Inc. was purchased.
(§2) The inhibitory activity measurement was performed as follows. The compounds of the present invention were individually dissolved in dimethyl sulfoxide (DMSO), and serial dilutions of these compounds were prepared using DMSO. Subsequently, a solution containing the substrate peptide (final concentration: 250 nM), magnesium chloride (final concentration: 10 mM), manganese chloride (final concentration: 10 mM), and ATP (final concentration: 1 μM) in a buffer solution for kinase reaction (Carna Biosciences, Inc.) was mixed with the dilutions of the compounds (final concentration of DMSO upon kinase reaction: 2.5%) or DMSO (final concentration: 2.5%). EGFR (T790M/L858R) protein was further added thereto, and the mixtures were incubated at 25° C. for 120 minutes to carry out a kinase reaction. EDTA was added thereto to a final concentration of 24 mM to thereby terminate the reaction. A phosphorylated thyrosine detection solution containing europium (Eu)-labeled anti-phosphorylated tyrosine antibody PT66 (PerkinElmer, Inc.) and SureLight APC-SA (PerkinElmer, Inc.) was added to the reaction mixtures, and the mixtures were allowed to stand at room temperature for 2 hours or more. For the background, a sample to which EDTA was added before addition of EGFR (T790M/L858R) protein was incubated at 25° C. for 120 minutes, using DMSO instead of the DMSO solution of the compound. The detection solution was also added to this sample, and the mixture was allowed to stand for 2 hours or more. Finally, for all of the test samples, the amount of fluorescence at the time of irradiation of excitation light having a wavelength of 337 nm was measured at dual wavelengths of 620 nm and 665 nm by PHERAstar FS (BMG LABTECH), and a ratio of the fluorescence amounts at the two wavelengths was obtained as data.
(§3) Based on the above rates, phosphorylation inhibition rates (%) were calculated for the samples to which various concentrations of the compound solutions were added. Finally, the obtained reaction inhibition rates (%) at the respective concentrations were plotted for each compound, and the IC50 value (nM), which is a compound concentration at which phosphorylation by EGFR (T790M/L858R) is inhibited by 50%, was determined using XLfit curve-fitting software (IDBS).

EGFR (d746-750/T790M) = target: T2, EGFR (d746-750/T790M) (Homo sapiens, UniProt P00533, DEL746-750/T790M); assay: EGFR (d746-750/T790M) kinase inhibitory activity; type: biochemical; settings: ATP 1.5 μM
T2 construct: purchased Carna Biosciences, Inc
T2 sequence (P00533 with tags, fused parts or gaps DEL746-750/T790M limits assumed): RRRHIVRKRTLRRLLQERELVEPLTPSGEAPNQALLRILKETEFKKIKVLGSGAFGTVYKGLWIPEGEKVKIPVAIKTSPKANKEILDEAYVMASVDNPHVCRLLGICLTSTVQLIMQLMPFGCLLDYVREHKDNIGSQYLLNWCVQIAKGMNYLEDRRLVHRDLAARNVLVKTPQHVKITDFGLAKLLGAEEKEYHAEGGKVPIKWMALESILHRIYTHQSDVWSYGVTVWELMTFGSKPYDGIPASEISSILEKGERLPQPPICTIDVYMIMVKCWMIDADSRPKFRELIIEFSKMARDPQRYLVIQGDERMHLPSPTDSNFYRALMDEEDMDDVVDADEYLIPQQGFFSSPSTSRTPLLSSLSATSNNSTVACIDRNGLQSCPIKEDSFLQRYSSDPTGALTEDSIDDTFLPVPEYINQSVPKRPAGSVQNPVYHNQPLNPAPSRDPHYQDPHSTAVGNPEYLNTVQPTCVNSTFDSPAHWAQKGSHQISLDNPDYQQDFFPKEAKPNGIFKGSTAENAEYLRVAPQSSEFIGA
Protocol: as §1, §2, §3
The inhibitory activities of the compounds of the present invention against EGFR (d746-750/T790M) kinase activity were measured.
The materials, the measurement method, and the data analysis method were substantially the same as those shown in the above description regarding “Measurement of EGFR (T790M/L858R) Kinase Inhibitory Activity,” except that a purified recombinant human EGFR (d746-750/T790M) protein purchased from Carna Biosciences, Inc. was used as the kinase protein, and the measurement was performed with an ATP final concentration of 1.5 μM. Finally, the IC50 value (nM) of each compound with respect to EGFR (d746-750/T790M) was determined by data analysis.

EGFR (L858R) = target: T3, EGFR (L858R) (Homo sapiens, UniProt P00533, L858R); assay: EGFR (L858R) kinase inhibitory activity; type: biochemical; settings: ATP 4 μM
T3 construct: purchased Carna Biosciences, Inc
T3 sequence (P00533 25-1210 L858R): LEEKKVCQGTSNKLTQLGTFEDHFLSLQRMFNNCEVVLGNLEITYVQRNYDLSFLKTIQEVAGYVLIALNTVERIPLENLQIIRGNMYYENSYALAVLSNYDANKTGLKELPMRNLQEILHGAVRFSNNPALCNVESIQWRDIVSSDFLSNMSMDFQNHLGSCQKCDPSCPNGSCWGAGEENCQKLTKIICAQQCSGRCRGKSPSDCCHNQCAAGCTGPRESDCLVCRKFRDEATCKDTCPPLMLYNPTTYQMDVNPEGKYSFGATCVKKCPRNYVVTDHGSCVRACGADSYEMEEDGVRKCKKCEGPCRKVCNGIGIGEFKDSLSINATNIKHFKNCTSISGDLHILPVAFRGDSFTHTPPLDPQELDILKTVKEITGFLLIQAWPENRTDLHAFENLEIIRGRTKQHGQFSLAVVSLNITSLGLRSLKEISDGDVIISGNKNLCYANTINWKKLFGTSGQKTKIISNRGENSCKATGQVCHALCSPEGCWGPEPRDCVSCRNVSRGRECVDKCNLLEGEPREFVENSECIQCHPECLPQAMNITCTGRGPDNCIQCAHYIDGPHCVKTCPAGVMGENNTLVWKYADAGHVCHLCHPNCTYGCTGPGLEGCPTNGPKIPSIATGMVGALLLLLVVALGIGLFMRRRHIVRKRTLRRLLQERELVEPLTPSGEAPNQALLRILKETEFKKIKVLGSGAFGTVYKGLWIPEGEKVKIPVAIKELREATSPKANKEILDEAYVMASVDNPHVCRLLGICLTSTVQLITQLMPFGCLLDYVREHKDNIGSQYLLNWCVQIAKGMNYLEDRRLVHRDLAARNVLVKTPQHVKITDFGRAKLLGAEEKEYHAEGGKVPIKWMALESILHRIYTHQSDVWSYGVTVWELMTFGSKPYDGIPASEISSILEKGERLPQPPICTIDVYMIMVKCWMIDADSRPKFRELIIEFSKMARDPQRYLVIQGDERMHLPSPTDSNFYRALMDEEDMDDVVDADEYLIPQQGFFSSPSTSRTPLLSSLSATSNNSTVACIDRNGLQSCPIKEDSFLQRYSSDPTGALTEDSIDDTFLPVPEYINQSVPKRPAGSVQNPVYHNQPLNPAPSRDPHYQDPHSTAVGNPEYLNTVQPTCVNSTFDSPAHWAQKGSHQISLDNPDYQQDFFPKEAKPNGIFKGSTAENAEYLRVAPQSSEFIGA
Protocol: as §1, §2, §3
The inhibitory activities of the compounds of the present invention against EGFR (L858R) kinase activity were measured.
The materials, the measurement method, and the data analysis method were substantially the same as those shown in the above description regarding “Measurement of EGFR (T790M/L858R) Kinase Inhibitory Activity,” except that a purified recombinant human EGFR (L858R) protein purchased from Carna Biosciences, Inc. was used as the kinase protein, and the measurement was performed with ATP at a final concentration of 4 μM. Finally, the IC50 value (nM) of each compound with respect to EGFR (L858R) was determined by data analysis.

EGFR (d746-750) = target: T4, EGFR (d746-750) (Homo sapiens, UniProt P00533, DEL746-750); assay: EGFR (d746-750) kinase inhibitory activity; type: biochemical; settings: ATP 5 μM, kinase reaction 90 minutes
T4 construct: purchased Carna Biosciences, Inc
T4 sequence (P00533 with tags, fused parts or gaps DEL746-750 limits assumed): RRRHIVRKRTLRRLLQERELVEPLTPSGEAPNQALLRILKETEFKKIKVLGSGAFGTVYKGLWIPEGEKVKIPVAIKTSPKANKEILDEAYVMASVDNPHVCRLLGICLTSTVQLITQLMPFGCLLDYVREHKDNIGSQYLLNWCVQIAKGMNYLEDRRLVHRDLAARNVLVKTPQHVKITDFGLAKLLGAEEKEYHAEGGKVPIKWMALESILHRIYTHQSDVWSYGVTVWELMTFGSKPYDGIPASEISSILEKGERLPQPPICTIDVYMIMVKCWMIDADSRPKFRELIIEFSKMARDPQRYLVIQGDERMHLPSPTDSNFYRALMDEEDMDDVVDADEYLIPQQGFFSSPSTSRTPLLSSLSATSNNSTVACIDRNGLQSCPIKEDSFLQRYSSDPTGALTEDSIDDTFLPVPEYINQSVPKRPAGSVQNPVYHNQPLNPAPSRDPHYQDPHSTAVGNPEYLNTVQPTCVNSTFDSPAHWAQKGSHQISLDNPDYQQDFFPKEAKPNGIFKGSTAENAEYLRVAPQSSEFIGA
Protocol: as §1, §2, §3
The inhibitory activities of the compounds of the present invention against EGFR (d746-750) kinase activity were measured.
The materials, the measurement method, and the data analysis method were substantially the same as those shown in the above description regarding “Measurement of EGFR (T790M/L858R) Kinase Inhibitory Activity,” except that a purified recombinant human EGFR (d746-750) protein purchased from Carna Biosciences, Inc. was used as the kinase protein, the measurement was performed with ATP at a final concentration of 5 μM, and the incubation for the kinase reaction was performed for 90 minutes. Finally, the IC50 value (nM) of each compound with respect to EGFR (d746-750) was determined by data analysis.

EGFR (WT) = target: T5, EGFR (WT) (Homo sapiens, UniProt P00533); assay: EGFR (WT) kinase inhibitory activity; type: biochemical; settings: substrate peptide 500 nM
T5 construct: expressing a cytoplasmic domain of human EGFR (WT) with its N-terminus fused to a FLAG tag; FLAG (N); made in house; host or cells: insect Sf9 cells, baculovirus expression system
T5 sequence (P00533 669-1210 limits assumed): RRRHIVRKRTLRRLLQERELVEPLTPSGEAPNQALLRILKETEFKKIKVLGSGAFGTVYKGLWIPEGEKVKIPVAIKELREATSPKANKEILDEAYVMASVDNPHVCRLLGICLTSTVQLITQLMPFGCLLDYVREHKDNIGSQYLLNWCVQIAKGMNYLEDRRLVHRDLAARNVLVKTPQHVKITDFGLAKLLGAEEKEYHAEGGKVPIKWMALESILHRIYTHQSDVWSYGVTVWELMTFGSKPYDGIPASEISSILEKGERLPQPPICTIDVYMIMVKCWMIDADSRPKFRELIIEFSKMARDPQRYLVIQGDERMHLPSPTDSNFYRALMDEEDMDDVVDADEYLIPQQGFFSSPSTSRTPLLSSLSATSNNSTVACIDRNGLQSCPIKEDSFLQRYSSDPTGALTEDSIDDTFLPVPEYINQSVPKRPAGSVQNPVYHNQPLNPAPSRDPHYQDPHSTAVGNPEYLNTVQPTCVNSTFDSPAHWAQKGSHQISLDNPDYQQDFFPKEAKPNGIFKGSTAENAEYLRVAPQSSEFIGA
Protocol: as §1, §2, §3
The inhibitory activities of the compounds of the present invention against EGFR (WT) kinase activity were measured.
The materials, the measurement method, and the data analysis method were substantially the same as those shown in the above description regarding “Measurement of EGFR (T790M/L858R) Kinase Inhibitory Activity,” except that a kinase protein prepared by expressing a cytoplasmic domain of human EGFR (WT) with its N-terminus fused to a FLAG tag in insect Sf9 cells using a baculovirus expression system and then purifying it with anti-FLAG antibody agarose (Sigma-Aldrich) was used as the kinase protein, the final concentration of the substrate peptide was 500 nM, and the final concentration of ATP was […]. Finally, the IC50 value (nM) of each compound with respect to EGFR (WT) was determined by data analysis.

[1] = tested on: NCI-H1975 expressing EGFR (T790M/L858R); assay: Growth inhibition, NCI-H1975 expressing EGFR (T790M/L858R); type: cell-based; settings: Homo sapiens, NCI-H1975, 72 h; cultured three days, CellTiter-Glo
Protocol: (§4) (1) A human […] lung cancer cell line NCI-H1975 expressing EGFR (T790M/L858R), (2) a human non-small cell lung cancer cell line HCC827 expressing EGFR (d746-750), and (3) a human epithelioid cancer cell line A431 expressing EGFR (WT) were each suspended in complete growth medium recommended by ATCC. The cell suspensions were seeded in each well of a 384-well flat microplate or a 96-well flat plate, and cultured in an incubator containing 5% carbon dioxide gas at 37° C. for one day. Each compound of the present invention was dissolved in DMSO, and serial dilutions of the test compound were prepared using DMSO (to a concentration 500 times the final concentration). The DMSO solution of the test compound or DMSO was diluted with complete growth medium, and the resulting solution was added to each well of the cell culture plate so that the final concentration of DMSO was 0.2%. Then, the cells were cultured in an incubator containing 5% carbon dioxide gas at 37° C. for three days. The number of cells was measured before the addition of the DMSO solution of the test compound, as well as after addition and culture by using a CellTiter-Glo Assay® (produced by Promega) according to a protocol recommended by Promega.
(§5) For each cell, the cell growth inhibition rates of the wells to which the test compounds at various concentrations were added were calculated by the following formula. Then, the obtained inhibition rates (%) at the respective concentrations were plotted for each test compound, and the GI50 value (nM), which is a test compound concentration at which the cell growth can be inhibited by 50%, was determined using XLfit curve-fitting software (IDBS). • Cell Growth Inhibition Rate (%)=(C−T)/(C−CO)×100 • T: Luminescence intensity of well cultured for three days after addition of the test compound solution • C: Luminescence intensity of well cultured for three days after addition of DMSO • C0: Luminescence intensity of well before addition of the test compound solution

[2] = tested on: HCC827 expressing EGFR (d746-750); assay: Growth inhibition, HCC827 expressing EGFR (d746-750); type: cell-based; settings: Homo sapiens, HCC827, 72 h; cultured three days, CellTiter-Glo
Protocol: as §4, §5

[3] = tested on: A431 expressing EGFR (WT); assay: Growth inhibition, A431 expressing EGFR (WT); type: cell-based; settings: Homo sapiens, A-431, 72 h; cultured three days, CellTiter-Glo
Protocol: as §4, §5

T1 sequence (P00533 25-1210 T790M/L858R): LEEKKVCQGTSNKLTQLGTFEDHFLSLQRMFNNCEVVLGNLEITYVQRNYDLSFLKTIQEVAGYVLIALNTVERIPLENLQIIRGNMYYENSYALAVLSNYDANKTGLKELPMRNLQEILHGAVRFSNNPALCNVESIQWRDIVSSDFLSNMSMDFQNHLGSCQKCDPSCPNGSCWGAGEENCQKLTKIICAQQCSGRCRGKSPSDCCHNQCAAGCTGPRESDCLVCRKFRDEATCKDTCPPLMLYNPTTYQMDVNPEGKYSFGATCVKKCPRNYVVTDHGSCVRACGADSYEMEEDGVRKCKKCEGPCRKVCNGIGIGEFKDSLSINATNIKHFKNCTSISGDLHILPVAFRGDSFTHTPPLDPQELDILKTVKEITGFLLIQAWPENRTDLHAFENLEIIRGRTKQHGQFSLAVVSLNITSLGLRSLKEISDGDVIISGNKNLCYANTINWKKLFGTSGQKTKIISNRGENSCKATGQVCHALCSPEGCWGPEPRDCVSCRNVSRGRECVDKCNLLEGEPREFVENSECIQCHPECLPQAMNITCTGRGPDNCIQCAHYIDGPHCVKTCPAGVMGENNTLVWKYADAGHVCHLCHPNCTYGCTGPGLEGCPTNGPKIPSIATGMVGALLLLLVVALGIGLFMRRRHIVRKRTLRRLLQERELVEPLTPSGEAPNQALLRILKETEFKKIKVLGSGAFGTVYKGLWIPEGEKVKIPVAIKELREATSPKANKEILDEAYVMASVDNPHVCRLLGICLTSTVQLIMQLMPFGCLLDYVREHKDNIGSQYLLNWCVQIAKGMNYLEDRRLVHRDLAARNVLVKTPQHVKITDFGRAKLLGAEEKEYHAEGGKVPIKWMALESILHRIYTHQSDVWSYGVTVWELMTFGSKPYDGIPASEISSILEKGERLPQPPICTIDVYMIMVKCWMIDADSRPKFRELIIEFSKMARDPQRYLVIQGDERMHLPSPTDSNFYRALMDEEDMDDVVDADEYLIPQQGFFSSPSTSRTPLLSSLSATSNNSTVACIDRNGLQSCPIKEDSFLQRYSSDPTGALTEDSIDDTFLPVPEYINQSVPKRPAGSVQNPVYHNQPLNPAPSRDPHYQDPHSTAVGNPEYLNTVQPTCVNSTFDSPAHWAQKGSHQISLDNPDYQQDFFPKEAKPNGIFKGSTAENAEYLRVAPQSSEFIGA

SMILES	IC50 (EGFR (T790M/L858R))	IC50 (EGFR (d746-750/T790M))	IC50 (EGFR (L858R))	IC50 (EGFR (d746-750))	IC50 (EGFR (WT))	GI50 [1]	GI50 [2]	GI50 [3]
C=CC(=O)N(C)[C@@H]1C=C(C)c2c(-c3cnc4ccccc4c3)c3c(N)ncnc3n2C1 [Example 23, (R)—N-(4-amino-6-methyl-5-(quinolin-3-yl)-8,9-dihydropyrimido[5,4-b]indolizin-8-yl)-N-methylacrylamide]	0.44 nM	0.3 nM	0.63 nM	0.29 nM	7.3 nM	47 nM	3.3 nM	5100 nM
C=C1c2c(-c3cnc4ccccc4c3)c3c(N)ncnc3n2C[C@H]1NC(=O)/C=C/CN(C)CC [Example 11, (S,E)-N-(4-amino-6-methylene-5-(quinolin-3-yl)-7,8-dihydro-6H-pyrimido[5,4-b]pyrrolizin-7-yl)-4-(ethyl(methyl)amino)but-2-enamide]	0.76 nM	0.32 nM	1.4 nM	0.88 nM	12 nM	260 nM	9.7 nM	3900 nM
C#CC(=O)N[C@@H]1Cn2c(c(-c3cnc4ccccc4c3)c3c(N)ncnc32)C1=C [Example 8, (S)—N-(4-amino-6-methylene-5-(quinolin-3-yl)-7,8-dihydro-6H-pyrimido[5,4-b]pyrrolizin-7-yl)propiolamide]	< 0.5 nM	< 0.15 nM	< 0.5 nM	< 0.15 nM	1 nM	800 nM	66 nM	1100 nM
C=CC(=O)N[C@H]1Cn2c(c(-c3cnc4ccccc4c3)c3c(N)ncnc32)C1=C [Example 25, (R)—N-(4-amino-6-methylene-5-(quinolin-3-yl)-7,8-dihydro-6H-pyrimido[5,4-b]pyrrolizin-7-yl)acrylamide]	36 nM	11 nM	100 nM	59 nM		2500 nM	260 nM	> 10000 nM
C=CC(=O)N[C@H]1C=Cc2c(-c3cnc4ccccc4c3)c3c(N)ncnc3n2C1 [Example 27, (S)—N-(4-amino-5-(quinolin-3-yl)-8,9-dihydropyrimido[5,4-b]indolizin-8-yl)acrylamide]	0.34 nM	0.25 nM	0.35 nM	0.38 nM		110 nM	15 nM	1000 nM
C=CC(=O)N(C)[C@@H]1Cn2c(c(-c3cnc4ccccc4c3)c3c(N)ncnc32)C1=C [Example 26, (S)—N-(4-amino-6-methylene-5-(quinolin-3-yl)-7,8-dihydro-6H-pyrimido[5,4-b]pyrrolizin-7-yl)-N-methylacrylamide]	1 nM	0.31 nM	1.7 nM	1.1 nM		150 nM	18.4 nM	4700 nM
C=CC(=O)N[C@H]1CC(C)c2c(-c3cnc4ccccc4c3)c3c(N)ncnc3n2C1 (some centres unmarked) [Example 29]	14 nM	8.4 nM	19 nM	21 nM		1600 nM	89 nM	> 10000 nM
C=CC(=O)N[C@H]1C=Cc2c(-c3cnc4ccccc4c3)c3c(N)ncnc3n2CC1 [Example 28, (R)—N-(4-amino-5-(quinolin-3-yl)-9,10-dihydro-8H-pyrimido[5′,4′:4,5]pyrrolo[1,2-a]azepin-8-yl)acrylamide]	0.3 nM	< 0.5 nM	0.49 nM	0.27 nM		48 nM	14 nM	1200 nM
